The text below walks through data of US20250236608A1, “EGFR INHIBITORS” (Blueprint Medicines Corporation, priority 2022, published 2025).

Experiment [1] deals with EGFR L858R (Homo sapiens (Human), UniProt P00533, L858R). The experiment is described as follows: Biochemical EGFR inhibition assay, EGFR L858R. Particulars: Caliper mobility shift; 1.0 mM ATP or ATP Km; read-out: Enz EGFR_L858R IC50.
In experiment [2] the target is EGFR (d746-750) (Homo sapiens (Human), UniProt P00533, DEL746-750). Description: Biochemical EGFR inhibition assay, EGFR (d746-750). Particulars: Caliper mobility shift; 1.0 mM ATP or ATP Km; read-out: Enz EGFR_Exon19-del746-750 IC50.
Chain of EGFR (d746-750) (P00533 other isoform, or with tags, fused parts or gaps del 1-694/del 746-750 limits assumed): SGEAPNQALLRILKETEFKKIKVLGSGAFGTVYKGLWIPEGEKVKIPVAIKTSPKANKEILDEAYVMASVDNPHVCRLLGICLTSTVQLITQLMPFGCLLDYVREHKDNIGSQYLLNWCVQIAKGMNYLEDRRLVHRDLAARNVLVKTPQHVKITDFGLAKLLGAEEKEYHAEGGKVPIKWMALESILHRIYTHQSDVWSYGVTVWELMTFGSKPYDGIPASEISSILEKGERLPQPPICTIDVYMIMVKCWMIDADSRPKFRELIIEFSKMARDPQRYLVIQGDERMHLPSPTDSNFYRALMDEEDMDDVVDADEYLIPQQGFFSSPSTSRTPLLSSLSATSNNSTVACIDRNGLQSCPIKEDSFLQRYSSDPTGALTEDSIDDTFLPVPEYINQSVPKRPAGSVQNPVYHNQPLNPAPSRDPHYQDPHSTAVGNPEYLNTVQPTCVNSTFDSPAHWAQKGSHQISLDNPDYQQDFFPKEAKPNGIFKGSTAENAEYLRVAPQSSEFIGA
For experiment [3], the target named is pEGFR (Tyr1068) in PC-9 cells (Ex19Del) (Homo sapiens (Human), UniProt P00533, DEL746-750). Description: PC-9 pEGFR AlphaLISA assay. It is filed as cell-based. The conditions noted are these: 4 hours incubation, p-EGFR (Tyr1068) AlphaLISA, read-out: Ext pEGFR_PC-9 Ex19Del IC50. Summed up: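 PC-9 cells seeded overnight in phenol-free DMEM with 10% FBS, then treated 4 h at 37°C with a 10-point, 4-fold compound series. Lysates assayed for pEGFR Tyr1068 by AlphaLISA SureFire; IC50 from % inhibition vs log concentration.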
Chain of pEGFR (Tyr1068) in PC-9 cells (Ex19Del) (P00533 other isoform, or with tags, fused parts or gaps del 746-750): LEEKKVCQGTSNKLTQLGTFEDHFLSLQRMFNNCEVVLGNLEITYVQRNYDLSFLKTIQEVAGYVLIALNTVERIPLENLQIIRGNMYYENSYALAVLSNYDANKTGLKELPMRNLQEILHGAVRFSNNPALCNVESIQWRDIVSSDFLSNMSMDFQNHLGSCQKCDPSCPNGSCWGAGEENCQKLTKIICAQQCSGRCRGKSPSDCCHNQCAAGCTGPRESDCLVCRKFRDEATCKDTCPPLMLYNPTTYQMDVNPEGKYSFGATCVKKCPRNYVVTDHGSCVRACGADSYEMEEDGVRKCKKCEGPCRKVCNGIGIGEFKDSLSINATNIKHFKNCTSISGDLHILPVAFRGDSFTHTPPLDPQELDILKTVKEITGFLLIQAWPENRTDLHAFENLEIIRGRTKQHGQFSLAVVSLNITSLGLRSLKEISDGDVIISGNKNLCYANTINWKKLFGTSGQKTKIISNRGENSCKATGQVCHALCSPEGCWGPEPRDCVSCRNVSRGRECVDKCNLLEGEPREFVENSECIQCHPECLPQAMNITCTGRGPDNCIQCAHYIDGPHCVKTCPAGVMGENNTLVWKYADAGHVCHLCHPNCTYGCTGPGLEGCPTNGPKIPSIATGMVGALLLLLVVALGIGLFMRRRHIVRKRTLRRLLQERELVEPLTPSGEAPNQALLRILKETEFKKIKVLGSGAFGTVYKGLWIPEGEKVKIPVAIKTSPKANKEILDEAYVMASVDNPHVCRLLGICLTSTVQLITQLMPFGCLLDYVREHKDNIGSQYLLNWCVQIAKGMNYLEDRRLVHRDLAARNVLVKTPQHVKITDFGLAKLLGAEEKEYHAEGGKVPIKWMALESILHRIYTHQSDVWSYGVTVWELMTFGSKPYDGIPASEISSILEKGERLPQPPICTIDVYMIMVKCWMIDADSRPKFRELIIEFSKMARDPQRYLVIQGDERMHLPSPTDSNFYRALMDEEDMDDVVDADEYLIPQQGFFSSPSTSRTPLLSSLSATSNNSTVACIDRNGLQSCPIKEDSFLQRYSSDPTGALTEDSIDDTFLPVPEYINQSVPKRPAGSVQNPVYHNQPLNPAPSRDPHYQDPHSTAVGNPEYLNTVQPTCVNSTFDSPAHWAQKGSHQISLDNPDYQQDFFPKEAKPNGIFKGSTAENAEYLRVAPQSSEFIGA
In general terms: Bead proximity is the source of the signal in Alpha formats.

One may read the IC50 as the concentration at which inhibition is half-maximal.

Structures can show the parent of a compound that is named as a salt.

Chain of EGFR L858R (P00533 25-1210 L858R): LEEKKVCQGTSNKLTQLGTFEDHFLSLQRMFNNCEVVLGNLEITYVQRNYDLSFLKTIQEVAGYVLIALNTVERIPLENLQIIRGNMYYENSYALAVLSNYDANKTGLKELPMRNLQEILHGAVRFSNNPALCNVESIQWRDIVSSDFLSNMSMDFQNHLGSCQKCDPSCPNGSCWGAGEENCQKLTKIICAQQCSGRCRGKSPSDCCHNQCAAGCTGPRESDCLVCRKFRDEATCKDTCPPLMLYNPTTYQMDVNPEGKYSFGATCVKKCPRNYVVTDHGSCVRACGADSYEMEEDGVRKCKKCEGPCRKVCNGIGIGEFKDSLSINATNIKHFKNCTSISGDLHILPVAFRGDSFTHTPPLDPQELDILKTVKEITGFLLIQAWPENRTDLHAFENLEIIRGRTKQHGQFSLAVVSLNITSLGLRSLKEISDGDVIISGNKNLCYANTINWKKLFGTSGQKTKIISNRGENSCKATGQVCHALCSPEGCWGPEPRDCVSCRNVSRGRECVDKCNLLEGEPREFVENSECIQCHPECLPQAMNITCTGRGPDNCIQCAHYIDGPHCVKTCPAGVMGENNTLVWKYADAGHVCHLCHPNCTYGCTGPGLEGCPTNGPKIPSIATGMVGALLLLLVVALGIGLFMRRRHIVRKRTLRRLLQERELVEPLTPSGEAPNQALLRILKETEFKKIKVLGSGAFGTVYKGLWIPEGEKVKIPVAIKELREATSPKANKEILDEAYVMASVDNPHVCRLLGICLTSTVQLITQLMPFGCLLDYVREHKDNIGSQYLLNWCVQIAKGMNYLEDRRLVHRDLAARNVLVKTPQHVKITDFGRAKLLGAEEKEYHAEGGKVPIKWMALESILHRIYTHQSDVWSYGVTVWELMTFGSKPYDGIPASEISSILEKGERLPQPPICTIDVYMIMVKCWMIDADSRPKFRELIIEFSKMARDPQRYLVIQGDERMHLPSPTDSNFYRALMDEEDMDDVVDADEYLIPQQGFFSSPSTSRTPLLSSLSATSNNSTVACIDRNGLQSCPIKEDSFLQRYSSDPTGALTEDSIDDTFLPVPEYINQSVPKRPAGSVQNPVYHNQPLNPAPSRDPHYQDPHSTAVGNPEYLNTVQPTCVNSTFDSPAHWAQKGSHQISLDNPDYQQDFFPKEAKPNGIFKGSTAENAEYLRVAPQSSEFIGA

Consider `COc1cc2ncnc(-c3cn(C)nc3-c3ccccc3)c2cc1NC(=O)c1ccnnc1` [Example 328, N-(7-methoxy-4-(1-methyl-3-phenyl-1H-pyrazol-4-yl)quinazolin-6-yl)pyridazine-4-carboxamide], for which the 50% inhibitory concentration (IC50) in experiment [1] came to 2.3 nM; in experiment [2], 1.1 nM; in experiment [3], 4.5 nM.
For the molecule `COc1cc2ncnc(-c3cn(C)nc3-c3ccccc3)c2cc1NC(=O)c1cccc(C)n1` [Example 329, N-(7-methoxy-4-(1-methyl-3-phenyl-1H-pyrazol-4-yl)quinazolin-6-yl)-6-methylpicolinamide], the half-inhibitory concentration (IC50) worked out at 1.4 nM in experiment [1], 0.9 nM in experiment [2] and 1.3 nM in experiment [3].
As to `COc1cc2ncnc(-c3cn(C)nc3-c3ccccc3)c2cc1NC(=O)c1nc(C)ccc1F` [Example 330, 3-fluoro-N-(7-methoxy-4-(1-methyl-3-phenyl-1H-pyrazol-4-yl)quinazolin-6-yl)-6-methylpicolinamide], the IC50 in experiment [1] was determined as 1 nM; in experiment [2], 0.7 nM; in experiment [3] it was 0.8 nM.
For `COc1cc2ncnc(-c3cn(C)nc3-c3ccccc3)c2cc1NC(=O)c1c(F)cccc1F` [Example 331, 2,6-difluoro-N-(7-methoxy-4-(1-methyl-3-phenyl-1H-pyrazol-4-yl)quinazolin-6-yl)benzamide], in that order: 1.7 nM, 1 nM and 1.5 nM.
Taken in the same sequence, the figures for `CCn1cc(-c2ncnc3cc(OC)c(NC(=O)c4cccnc4)cc23)c(-c2ccccc2)n1` [Example 332, N-(4-(1-ethyl-3-phenyl-1H-pyrazol-4-yl)-7-methoxyquinazolin-6-yl) nicotinamide] were 2.3 nM, 1.6 nM and 2.1 nM.
Taken in the same sequence, the figures for `COc1cc2ncnc(-c3cn(CC(F)F)nc3-c3ccccc3)c2cc1NC(=O)c1ccc(C2CC2)nc1` [Example 333, 6-cyclopropyl-N-(4-(1-(2,2-difluoroethyl)-3-phenyl-1H-pyrazol-4-yl)-7-methoxyquinazolin-6-yl) nicotinamide] were 1.3 nM, 0.8 nM and 1.7 nM.
Take `CCn1cc(-c2ncnc3cc(OC)c(NC(=O)[C@@]45COC[C@@H]4C5)cc23)c(-c2ccc(F)cc2)n1` [Example 334, (1R,5R)—N-(4-(1-ethyl-3-(4-fluorophenyl)-1H-pyrazol-4-yl)-7-methoxyquinazolin-6-yl)-3-oxabicyclo[3.1.0]hexane-1-carboxamide]: the concentration for half-maximal inhibition (IC50) amounted to 2.4 nM in experiment [1], 1.5 nM in experiment [2] and 2.2 nM in experiment [3].
For `CCn1cc(-c2ncnc3cc(OC)c(NC(=O)[C@]45COC[C@H]4C5)cc23)c(-c2ccc(F)cc2)n1` [Example 335, (1S,5S)—N-(4-(1-ethyl-3-(4-fluorophenyl)-1H-pyrazol-4-yl)-7-methoxyquinazolin-6-yl)-3-oxabicyclo[3.1.0]hexane-1-carboxamide], in that order: 2.9 nM, 1.6 nM and 3 nM.
Taken in the same sequence, the figures for `COc1cc2ncnc(-c3cn(C)nc3-c3c(F)cccc3F)c2cc1NC(=O)C1CC1` [Example 338, N-(4-(3-(2,6-difluorophenyl)-1-methyl-1H-pyrazol-4-yl)-7-methoxyquinazolin-6-yl)cyclopropanecarboxamide] were 1.9 nM, 1.2 nM and 2.3 nM.
In the case of `COc1cc2ncnc(-c3cn(C)nc3-c3ccccc3)c2cc1NC(=O)C12CC(C1)C2` [Example 340, N-(7-methoxy-4-(1-methyl-3-phenyl-1H-pyrazol-4-yl)quinazolin-6-yl)bicyclo[1.1.1]pentane-1-carboxamide], the IC50 amounted to 3.3 nM in experiment [1], 1.6 nM in experiment [2] and 2.5 nM in experiment [3].
For `COc1cc2ncnc(-c3cn(C)nc3-c3ccccc3)c2cc1NC(=O)C12CC(N(C)C)(C1)C2` [Example 341, 3-(dimethylamino)-N-(7-methoxy-4-(1-methyl-3-phenyl-1H-pyrazol-4-yl)quinazolin-6-yl)bicyclo[1.1.1]pentane-1-carboxamide trifluoroacetate], in that order: 6.4 nM, 3 nM and 8.3 nM.
Taken in the same sequence, the figures for `COc1cc2ncnc(-c3cn(C)nc3-c3ccccc3)c2cc1NC(=O)C12CC(F)(C1)C2` [Example 342, 3-fluoro-N-(7-methoxy-4-(1-methyl-3-phenyl-1H-pyrazol-4-yl)quinazolin-6-yl)bicyclo[1.1.1]pentane-1-carboxamide] were 6.7 nM, 3.5 nM and 11.2 nM.
For `COc1cc2ncnc(-c3cn(C)nc3-c3ccccc3)c2cc1NC(=O)C1CC1` [Example 344, N-(7-methoxy-4-(1-methyl-3-phenyl-1H-pyrazol-4-yl)quinazolin-6-yl)cyclopropanecarboxamide], in that order: 1.6 nM, 1 nM and 0.8 nM.
`COc1cc2ncnc(-c3cn(C)nc3-c3ccccc3)c2cc1NC(=O)C1(C)COC1` [Example 345, N-(7-methoxy-4-(1-methyl-3-phenyl-1H-pyrazol-4-yl)quinazolin-6-yl)-3-methyloxetane-3-carboxamide]: the half-maximal inhibitory concentration (IC50) in experiment [1] amounted to 4.7 nM; in experiment [2], 1.9 nM; in experiment [3] it was 7.8 nM.
Regarding `COc1cc2ncnc(-c3cn(C)nc3-c3ccccc3)c2cc1NC(=O)C1CC(F)(F)C1` [Example 346, 3,3-difluoro-N-(7-methoxy-4-(1-methyl-3-phenyl-1H-pyrazol-4-yl)quinazolin-6-yl)cyclobutane-1-carboxamide], the figures for the IC50 in experiment [1], in experiment [2] and in experiment [3] were 2.1 nM, 1.3 nM and 0.9 nM, respectively.
Regarding `COc1cc2ncnc(-c3cn(C)nc3-c3ccccc3)c2cc1NC(=O)C1CCC1` [Example 347, N-(7-methoxy-4-(1-methyl-3-phenyl-1H-pyrazol-4-yl)quinazolin-6-yl)cyclobutanecarboxamide], the IC50 in experiment [1] is 2.4 nM; in experiment [2], 1.2 nM; in experiment [3], 0.6 nM.
For `COc1cc2ncnc(-c3cn(C)nc3-c3ccccc3)c2cc1NC(=O)C1(C)CCC1` [Example 348, N-(7-methoxy-4-(1-methyl-3-phenyl-1H-pyrazol-4-yl)quinazolin-6-y1)-1-methylcyclobutane-1-carboxamide], in that order: 3.2 nM, 1.7 nM and 3.4 nM.
Consider `COc1cc2ncnc(-c3cn(C)nc3-c3ccccc3)c2cc1NC(=O)C1(C(F)(F)F)CC1` [Example 349, N-(7-methoxy-4-(1-methyl-3-phenyl-1H-pyrazol-4-yl)quinazolin-6-yl)-1-(trifluoromethyl)cyclopropane-1-carboxamide], for which the results for the 50% inhibitory concentration (IC50) in experiment [1], in experiment [2] and in experiment [3] were 2 nM, 1 nM and 3.5 nM, respectively.
For `COc1cc2ncnc(-c3cn(C)nc3-c3ccccc3)c2cc1NC(=O)C(C)(C)F` [Example 350, 2-fluoro-N-(7-methoxy-4-(1-methyl-3-phenyl-1H-pyrazol-4-yl)quinazolin-6-yl)-2-methylpropanamide], the IC50 is 3.1 nM in experiment [1], 1.5 nM in experiment [2] and 4.4 nM in experiment [3].
Consider `COc1cc2ncnc(-c3cn(C)nc3-c3ccccc3)c2cc1NC(=O)c1ccncc1` [Example 351, N-(7-methoxy-4-(1-methyl-3-phenyl-1H-pyrazol-4-yl)quinazolin-6-yl)isonicotinamide], for which the IC50 is 3.1 nM in experiment [1], 1.7 nM in experiment [2] and 4.6 nM in experiment [3].
As for `COc1cc2ncnc(-c3cn(C)nc3-c3ccccc3)c2cc1NC(=O)c1ccc(C(F)F)nc1` [Example 352, 6-(difluoromethyl)-N-(7-methoxy-4-(1-methyl-3-phenyl-1H-pyrazol-4-yl)quinazolin-6-yl)nicotinamide], the figures for the IC50 in experiment [1], in experiment [2] and in experiment [3] were 3.6 nM, 1.7 nM and 4.9 nM, respectively.
With `COc1cc2ncnc(-c3cn(CC(F)F)nc3-c3ccccc3)c2cc1NC(=O)c1cccnc1` [Example 353, N-(4-(1-(2,2-difluoroethyl)-3-phenyl-1H-pyrazol-4-yl)-7-methoxyquinazolin-6-yl)nicotinamide], the IC50 in experiment [1] was found to be 2.3 nM; in experiment [2] it was 1.3 nM; in experiment [3] it was 1.6 nM.
For `COc1cc2ncnc(-c3cn(C)nc3-c3ccccc3)c2cc1NC(=O)c1sc(C2CC2)nc1C` [Example 354, 2-cyclopropyl-N-(7-methoxy-4-(1-methyl-3-phenyl-1H-pyrazol-4-yl)quinazolin-6-yl)-4-methylthiazole-5-carboxamide], in that order: 2.6 nM, 1.2 nM and 0.8 nM.
Turning to `COc1cc2ncnc(-c3cn(C)nc3-c3ccccc3)c2nc1NC(=O)C1CC1` [Example 355, N-(7-methoxy-4-(1-methyl-3-phenyl-1H-pyrazol-4-yl)pyrido[3,2-d]pyrimidin-6-yl)cyclopropanecarboxamide], the concentration for half-maximal inhibition (IC50) in experiment [1] is 1.7 nM; in experiment [2] it was 1 nM; in experiment [3], 0.8 nM.
As for `COc1cc2ncnc(-c3cn(C)nc3-c3ccccc3F)c2nc1NC(=O)C1CC1` [Example 356, N-(4-(3-(2-fluorophenyl)-1-methyl-1H-pyrazol-4-yl)-7-methoxypyrido[3,2-d]pyrimidin-6-yl)cyclopropanecarboxamide], the results for the half-inhibitory concentration (IC50) in experiment [1], in experiment [2] and in experiment [3] were 1.9 nM, 1.1 nM and 1.2 nM, respectively.
